# Where “and” joins values, the source holds several entries; their conditions need not be identical. Equal values may be shown once. Read-outs that look alike come from different tables or passages of the source.
# How the values were obtained:
# Assay type in all cases: cell-based
# [1] = system: Escherichia coli (E. coli—ATCC #8739); test: Synergy test, microtiter plate high resolution MIC assay, bacterium in M9GY medium; parameters: Qa (First Component A) / Qb (Second Component B): unit: ppm; details: for MIC of the component acting alone (QA / QB): E. coli 8739, M9GY, 30° C.
# Summary of the method: (§1)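 High-resolution microtiter MICs spanned 2 to 10,000 ppm active, tested alongside varying BBIT or MBIT as component A. E. coli was run at ~5×10^6/mL in M9GY (0.2% glucose, 0.1% yeast extract) at 30 °C; C. albicans and A. niger at 5×10^5/mL in PDB. Synergy index is Qa/QA + Qb/QB, with >1 indicating antagonism.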
# [2] = system: Candida albicans (C. albicans—ATCC 10231); test: Synergy test, microtiter plate high resolution MIC assay, yeast in PDB medium; parameters: Qb (Second Component B) / Qa (First Component A): unit: ppm; details: for MIC of the component acting alone (QA / QB): C. albicans 10231, PDB, 25° C.
# Summary of the method: as §1
# [3] = system: Aspergillus niger (A. niger—ATCC 16404); test: Synergy test, microtiter plate high resolution MIC assay, mold in PDB medium; parameters: Qb (Second Component B) / Qa (First Component A): unit: ppm
# Summary of the method: as §1
# [4] = A=MBIT, B=BBIT, E. coli 8739 - M9GY, 24 hours
# [5] = A=MBIT, B=BBIT, C. albicans 10231 - PDB, 48 hours
# [6] = A=MBIT, B=BBIT, A. niger 16404 - PDB, 4 days
structure (smiles),measurement,setting,value
"CCCCn1sc2ccccc2c1=O [BBIT, N-(n-butyl)-1,2-benzisothiazolin-3-one]",Qa (First Component A),[1],200
same,SI (synergy index),[1],1.00
same,Qb (Second Component B),[1]; [4],100
same,SI (synergy index),[1]; [4],1.00
same,MIC of the component acting alone (QA / QB),[1]; 24 hours,200 ppm and 100 ppm
same,MIC of the component acting alone (QA / QB),[1]; 48 hours,100 ppm
same,MIC of the component acting alone (QA / QB),[1]; 72 hours,100 ppm
same,SI,"[1]; E. coli 8739 - M9GY, 24 hours, BBIT + hexylene glycol",1.00
same,Qa (First Component A = BBIT),"[1]; E. coli 8739 - M9GY, 24 hours, BBIT alone (Qb 0) or in mixture with hexylene glycol",100
same,SI,"[1]; E. coli 8739 - M9GY, 24 hours, BBIT with Pentylene glycol",1.00
same,SI,"[1]; E. coli 8739 - M9GY, 24 hours, BBIT with Potassium sorbate",1.00
same,SI,"[1]; E. coli 8739 - M9GY, 24 hours, BBIT with Propylparaben",1.00
same,SI,"[1]; E. coli 8739 - M9GY, 24 hours, BBIT with SDHA",1.00
same,SI,"[1]; E. coli 8739 - M9GY, 24 hours, BBIT with Sodium benzoate",1.00
same,SI,"[1]; E. coli 8739 - M9GY, 48 hours, BBIT + DTBMA",1.00
same,SI,"[1]; E. coli 8739 - M9GY, 48 hours, BBIT + hexamidine diisethionate",1.00
same,Qa (First Component A = BBIT),"[1]; E. coli 8739 - M9GY, 48 hours, BBIT alone (Qb 0) or in mixture with DTBMA",100
same,Qa (First Component A = BBIT),"[1]; E. coli 8739 - M9GY, 48 hours, BBIT alone (Qb 0) or in mixture with hexamidine diisethionate",6
same,SI,"[1]; E. coli 8739 - M9GY, 48 hours, BBIT with Phospholipid EFA",1.00
same,SI,"[1]; E. coli 8739 - M9GY, 72 hours, BBIT + DMDMH",1.00
same,SI,"[1]; E. coli 8739 - M9GY, 72 hours, BBIT + EDTA",1.00
same,SI,"[1]; E. coli 8739 - M9GY, 72 hours, BBIT + hexetidine",1.00
same,Qa (First Component A = BBIT),"[1]; E. coli 8739 - M9GY, 72 hours, BBIT alone (Qb 0) or in mixture with DMDMH",100
same,Qa (First Component A = BBIT),"[1]; E. coli 8739 - M9GY, 72 hours, BBIT alone (Qb 0) or in mixture with EDTA",100
same,Qa (First Component A = BBIT),"[1]; E. coli 8739 - M9GY, 72 hours, BBIT alone (Qb 0) or in mixture with hexetidine",80
same,SI,"[1]; E. coli 8739 - M9GY, 72 hours, BBIT with Methylparaben",1.00
same,SI,"[1]; E. coli 8739 - M9GY, 72 hours, BBIT with Phenoxyethanol",1.00
same,SI,"[1]; E. coli 8739 - M9GY, 72 hours, BBIT with Phospholipid PTC",1.00
same,SI,"[1]; E. coli 8739 - M9GY, 72 hours, BBIT with Quaternium-15",1.00
same,Qa (First Component A),[2],10
same,SI (synergy index),[2],1.00
same,Qb (Second Component B),[2]; [5],6
same,SI (synergy index),[2]; [5],1.00
same,MIC of the component acting alone (QA / QB),[2]; 24 hours,7.5 ppm and 6 ppm and 8 ppm
same,MIC of the component acting alone (QA / QB),[2]; 48 hours,10 ppm and 7.5 ppm and 8 ppm
same,SI,"[2]; C. albicans 10231 - PDB, 24 hours, BBIT + DMDMH",1.00
same,SI,"[2]; C. albicans 10231 - PDB, 24 hours, BBIT + DTBMA",1.00
same,SI,"[2]; C. albicans 10231 - PDB, 24 hours, BBIT + EDTA",1.00
same,SI,"[2]; C. albicans 10231 - PDB, 24 hours, BBIT + hexamidine diisethionate",1.00
same,SI,"[2]; C. albicans 10231 - PDB, 24 hours, BBIT + hexylene glycol",1.00
same,Qa (First Component A = BBIT),"[2]; C. albicans 10231 - PDB, 24 hours, BBIT alone (Qb 0) or in mixture with DMDMH",7.5
same,Qa (First Component A = BBIT),"[2]; C. albicans 10231 - PDB, 24 hours, BBIT alone (Qb 0) or in mixture with DTBMA",15
same,Qa (First Component A = BBIT),"[2]; C. albicans 10231 - PDB, 24 hours, BBIT alone (Qb 0) or in mixture with EDTA",7.5
same,Qa (First Component A = BBIT),"[2]; C. albicans 10231 - PDB, 24 hours, BBIT alone (Qb 0) or in mixture with hexamidine diisethionate",10
same,Qa (First Component A = BBIT),"[2]; C. albicans 10231 - PDB, 24 hours, BBIT alone (Qb 0) or in mixture with hexylene glycol",10
same,SI,"[2]; C. albicans 10231 - PDB, 24 hours, BBIT with Methylparaben",1.00
same,SI,"[2]; C. albicans 10231 - PDB, 24 hours, BBIT with Pentylene glycol",1.00
same,SI,"[2]; C. albicans 10231 - PDB, 24 hours, BBIT with Phenoxyethanol",1.00
same,SI,"[2]; C. albicans 10231 - PDB, 24 hours, BBIT with Phospholipid EFA",1.00
same,SI,"[2]; C. albicans 10231 - PDB, 24 hours, BBIT with Phospholipid PTC",1.00
same,SI,"[2]; C. albicans 10231 - PDB, 24 hours, BBIT with Potassium sorbate",1.00
same,SI,"[2]; C. albicans 10231 - PDB, 24 hours, BBIT with Propylparaben",1.00
same,SI,"[2]; C. albicans 10231 - PDB, 24 hours, BBIT with Quaternium-15",1.00
same,SI,"[2]; C. albicans 10231 - PDB, 24 hours, BBIT with SDHA",1.00
same,SI,"[2]; C. albicans 10231 - PDB, 48 hours, BBIT with Sodium benzoate",1.00
same,SI,"[2]; C. albicans 10231 - PDB, 72 hours, BBIT + hexetidine",1.00
same,Qa (First Component A = BBIT),"[2]; C. albicans 10231 - PDB, 72 hours, BBIT alone (Qb 0) or in mixture with hexetidine",15
same,Qa (First Component A),[3],40
same,SI (synergy index),[3],1.00
same,MIC of the component acting alone (QA / QB),"[3]; A. niger 16404, PDB, 4 days, 25° C.",15 ppm
same,SI,"[3]; A. niger 16404 - PDB, 3 days, BBIT + hexylene glycol",1.00
same,Qa (First Component A = BBIT),"[3]; A. niger 16404 - PDB, 3 days, BBIT alone (Qb 0) or in mixture with hexylene glycol",15
same,SI,"[3]; A. niger 16404 - PDB, 3 days, BBIT with Methylparaben",1.00
same,SI,"[3]; A. niger 16404 - PDB, 3 days, BBIT with Phospholipid PTC",1.00
same,SI,"[3]; A. niger 16404 - PDB, 3 days, BBIT with Potassium sorbate",1.00
same,SI,"[3]; A. niger 16404 - PDB, 4 days, BBIT + hexetidine",1.00
same,Qa (First Component A = BBIT),"[3]; A. niger 16404 - PDB, 4 days, BBIT alone (Qb 0) or in mixture with hexetidine",20
same,SI,"[3]; A. niger 16404 - PDB, 4 days, BBIT with Pentylene glycol",1.00
same,SI,"[3]; A. niger 16404 - PDB, 4 days, BBIT with Phospholipid EFA",1.00
same,SI,"[3]; A. niger 16404 - PDB, 4 days, BBIT with Quaternium-15",1.00
same,SI,"[3]; A. niger 16404 - PDB, 7 days, BBIT + DMDMH",1.00
same,SI,"[3]; A. niger 16404 - PDB, 7 days, BBIT + DTBMA",1.00
same,SI,"[3]; A. niger 16404 - PDB, 7 days, BBIT + EDTA",1.00
same,Qa (First Component A = BBIT),"[3]; A. niger 16404 - PDB, 7 days, BBIT alone (Qb 0) or in mixture with DMDMH",80
same,Qa (First Component A = BBIT),"[3]; A. niger 16404 - PDB, 7 days, BBIT alone (Qb 0) or in mixture with DTBMA",40
same,Qa (First Component A = BBIT),"[3]; A. niger 16404 - PDB, 7 days, BBIT alone (Qb 0) or in mixture with EDTA",40
same,SI,"[3]; A. niger 16404 - PDB, 7 days, BBIT with Phenoxyethanol",1.00
same,SI,"[3]; A. niger 16404 - PDB, 7 days, BBIT with Propylparaben",1.00
same,SI,"[3]; A. niger 16404 - PDB, 7 days, BBIT with SDHA",1.00
same,SI,"[3]; A. niger 16404 - PDB, 7 days, BBIT with Sodium benzoate",1.00
same,Qb (Second Component B),[3]; [6],40
same,SI (synergy index),[3]; [6],1.00
